In patent US20200264182A1, “METHOD FOR DETECTING PROSTATE CANCER” (J-OIL MILLS, INC., priority 2017, published 2020):

Legend:
FAC binding constant = settings: at 25° C.
Description: (§1) Details of the FAC method are described in Patent Document 2 filed by some of the present applicants, for example.
(§2) Binding constants (at 25° C.) of PhoSL, SRL, NSL and LSL belonging to the fucose α1→6 specific lectin for various sugar chains are shown in Tables 2 to 5.

serum fucosylated PSA = experiment: Sandwich ELISA, anti-PSA antibody and biotin-labeled lectin; format: binding, human; settings: for Δ (=A − B): reaction value of Prostate cancer 4 minus Healthy 1; for lectin reaction value B of Healthy 1: serum of Healthy 1; for lectin reaction value A of Prostate cancer 4: serum of Prostate cancer 4, GS 6 (3 + 3)
Description: The anti-PSA antibody from which sugar chains had been removed was diluted to 5 μg/mL with PBS. 25 μL of this diluted solution was added to each well of an ELISA plate and allowed to stand at 37° C. for 12 hours, and then the additive solution was discarded.
150 μL of PBS containing 0.05% Tween 20 (product name: polyoxyethylene sorbitan monolaurate, from Nacalai Tesque, Inc.) was added to each well, and then the additive solution was discarded. This manipulation was repeated three times in total.
25 μL of 1% BSA/PBS was added to each well and allowed to stand at 37° C. for 1 hour, and then the additive solution was discarded.
150 μL of PBS containing 0.05% Tween 20 was added to each well, and then the additive solution was discarded. This manipulation was repeated three times in total.
To graph a calibration curve, 25 μL of the fucosylated PSA reference standard diluted with 1% BSA/PBS to a concentration of 0 to 200 ng/mL was added to each well and allowed to stand at room temperature for 1 hour, and then the additive solution was discarded. In addition, to detect the fucosylated PSA in the serum of the subject by the lectin, 25 μL of serum of “Healthy 1” and “Prostate cancer 4” 2-fold diluted with PBS was added to each well and allowed to stand at room temperature for 1 hour, and then the additive solution was discarded.
In Reference Example 1, 25 μL of a biotin-labeled PhoSL diluted to 0.1 μg/mL with 0.1% BSA/PBS (pH 7.4) was added to each well and allowed to stand at 4° C. for 30 minutes, and then the additive solution was discarded. In Example 1, 25 μL of a biotin-labeled PhoSL diluted to 0.1 μg/mL with 0.1% BSA/10-fold diluted PBS+glycine-NaOH (pH 9.6) was added to each well and allowed to stand at 4° C. for 30 minutes, and then the additive solution was discarded.
25 μL of a horseradish peroxidase (HRP)-labeled streptavidin solution (from Vector Laboratories, Inc., concentration: 0.4 μg/mL, in 1% BSA/PBS) was added to each well and allowed to stand at room temperature for 30 minutes, and then the additive solution was discarded.
25 μL of chromogenic substrate for HRP (product name: TMB, from Kirkegaard & Perry Laboratories, Inc.) was added to each well and allowed to stand at room temperature for 10 minutes.
25 μL of 1M phosphoric acid was added to terminate the reaction.
Absorbance (Ab) at 450 nm and 630 nm was measured using a plate reader, and a measurement (Ab450-630) was obtained.
A calibration curve was graphed by plotting signals (reaction values, Ab450-630) of the fucosylated PSA reference standard with the biotin-labeled PhoSL. A Signal (Ab450-630) of the biotin-labeled PhoSL corresponding to the fucosylated PSA concentration of 10 ng/mL was defined as 10 U/mL.
The signals of biotin-labeled PhoSL (Ab450-630) for the serum fucosylated PSA in the subject samples A were assigned to the calibration curve to calculate reaction values (unit: U/mL).
The PhoSL reaction values for the subject samples A were measured by the same operation as in Example 1. From the PhoSL reaction values, an average value and a median value were determined. Furthermore, a standard cutoff value (89.7 U/mL) was used to determine a detection rate (positive rate) of the prostate cancer patients, and a false detection rate (false positive rate) of the healthy persons.
Comparative Example 2 in Table 9 indicates results of detecting the serum fucosylated PSA using AAL (AAL reaction values) in the subject samples A. Specifically, in Reference Example 1, AAL reaction values were measured in the same manner as in Reference Example 1 except that the biotin-labeled PhoSL was replaced with a biotin-labeled AAL. A standard cut-off value for the AAL reaction values was 894.8 U/mL. As in Example 2, an average value, a median value, a positive rate and a false positive rate were determined from the AAL reaction values.

[1] = FAC binding constant (Table 5 entry); settings: Table 5: sugar chain having no fucose; at 25° C.
Description: as §1, §2

Binding constant for sugar chain No. 701 (FAC binding constant; sugar chain having no fucose): <1000 M⁻¹ | Binding constant for sugar chain No. 702 (FAC binding constant; sugar chain having no fucose): <1000 M⁻¹ | Binding constant for sugar chain No. 703 (FAC binding constant; sugar chain having no fucose): <1000 M⁻¹ | Binding constant for sugar chain No. 704 (FAC binding constant; sugar chain having no fucose): <1000 M⁻¹ | Binding constant for sugar chain No. 705 (FAC binding constant; sugar chain having no fucose): <1000 M⁻¹ | Binding constant for sugar chain No. 706 (FAC binding constant; sugar chain having no fucose): <1000 M⁻¹ | Binding constant for sugar chain No. 707 (FAC binding constant; sugar chain having no fucose): <1000 M⁻¹ | Binding constant for sugar chain No. 708 (FAC binding constant; sugar chain having no fucose): <1000 M⁻¹ | Binding constant for sugar chain No. 709 (FAC binding constant; sugar chain having no fucose): <1000 M⁻¹ | Binding constant for sugar chain No. 710 (FAC binding constant; sugar chain having no fucose): <1000 M⁻¹ | Binding constant for sugar chain No. 711 (FAC binding constant; sugar chain having no fucose): <1000 M⁻¹ | Binding constant for sugar chain No. 712 (FAC binding constant; sugar chain having no fucose): <1000 M⁻¹ | Binding constant for sugar chain No. 713 (FAC binding constant; sugar chain having no fucose): <1000 M⁻¹ | Binding constant for sugar chain No. 715 (FAC binding constant; sugar chain having no fucose): <1000 M⁻¹ | Binding constant for sugar chain No. 716 (FAC binding constant; sugar chain having no fucose): <1000 M⁻¹ | Binding constant for sugar chain No. 717 (FAC binding constant; sugar chain having no fucose): <1000 M⁻¹ | Binding constant for sugar chain No. 724 (FAC binding constant; sugar chain having no fucose): <1000 M⁻¹ | Binding constant for sugar chain No. 725 (FAC binding constant; sugar chain having no fucose): <1000 M⁻¹ | Binding constant for sugar chain No. 732 (FAC binding constant; sugar chain having no fucose): <1000 M⁻¹ | Binding constant for sugar chain No. 733 (FAC binding constant; sugar chain having no fucose): <1000 M⁻¹ | Binding constant for sugar chain No. 734 (FAC binding constant; sugar chain having no fucose): <1000 M⁻¹ | Binding constant for sugar chain No. 735 (FAC binding constant; sugar chain having no fucose): <1000 M⁻¹ | Binding constant for sugar chain No. 736 (FAC binding constant; sugar chain having no fucose): <1000 M⁻¹ | Binding constant for sugar chain No. 737 (FAC binding constant; sugar chain having no fucose): <1000 M⁻¹ | Binding constant for sugar chain No. 738 (FAC binding constant; sugar chain having no fucose): <1000 M⁻¹ | Binding constant for sugar chain No. 901 (FAC binding constant; sugar chain having no fucose): <1000 M⁻¹ | Binding constant for sugar chain No. 902 (FAC binding constant; sugar chain having no fucose): <1000 M⁻¹ | Binding constant for sugar chain No. 903 (FAC binding constant; sugar chain having no fucose): <1000 M⁻¹ | Binding constant for sugar chain No. 905 (FAC binding constant; sugar chain having no fucose): <1000 M⁻¹ | Binding constant for sugar chain No. 906 (FAC binding constant; sugar chain having no fucose): <1000 M⁻¹ | Binding constant for sugar chain No. 907 (FAC binding constant; sugar chain having no fucose): <1000 M⁻¹ | Binding constant for sugar chain No. 015 (FAC binding constant; sugar chain having α1→6 fucose): 36000 M⁻¹ | Binding constant for sugar chain No. 201 (FAC binding constant; sugar chain having α1→6 fucose): 38000 M⁻¹ | Binding constant for sugar chain No. 202 (FAC binding constant; sugar chain having α1→6 fucose): 39000 M⁻¹ | Binding constant for sugar chain No. 203 (FAC binding constant; sugar chain having α1→6 fucose): 30000 M⁻¹ | Binding constant for sugar chain No. 401 (FAC binding constant; sugar chain having α1→6 fucose): 51000 M⁻¹ | Binding constant for sugar chain No. 402 (FAC binding constant; sugar chain having α1→6 fucose): 36000 M⁻¹ | Binding constant for sugar chain No. 403 (FAC binding constant; sugar chain having α1→6 fucose): 52000 M⁻¹ | Binding constant for sugar chain No. 404 (FAC binding constant; sugar chain having α1→6 fucose): 43000 M⁻¹ | Binding constant for sugar chain No. 405 (FAC binding constant; sugar chain having α1→6 fucose): 50000 M⁻¹ | Binding constant for sugar chain No. 406 (FAC binding constant; sugar chain having α1→6 fucose): 23000 M⁻¹ | Binding constant for sugar chain No. 410 (FAC binding constant; sugar chain having α1→6 fucose): 220000 M⁻¹ | Binding constant for sugar chain No. 413 (FAC binding constant; sugar chain having α1→6 fucose): 280000 M⁻¹ | Binding constant for sugar chain No. 418 (FAC binding constant; sugar chain having α1→6 fucose): 220000 M⁻¹ | Binding constant for sugar chain No. 601 (FAC binding constant; sugar chain having α1→6 fucose): 240000 M⁻¹ | Binding constant for sugar chain No. 602 (FAC binding constant; sugar chain having α1→6 fucose): 120000 M⁻¹ | Binding constant for sugar chain No. 728 [1]: <1000 M⁻¹
Substance: NSL: fucose α1→6 specific lectin that can be extracted from Naematoloma sublateritium, SEQ ID No. 4 or 5
Δ (=A − B) (serum fucosylated PSA; pH in lectin reaction 7.4): 222 U/mL | Δ (=A − B) (serum fucosylated PSA; pH in lectin reaction 9.6): 240.3 U/mL | lectin reaction value B of Healthy 1 (serum fucosylated PSA; pH in lectin reaction 7.4): 177.7 U/mL | lectin reaction value B of Healthy 1 (serum fucosylated PSA; pH in lectin reaction 9.6): 42.3 U/mL | lectin reaction value A of Prostate cancer 4 (serum fucosylated PSA; pH in lectin reaction 7.4): 399.7 U/mL | lectin reaction value A of Prostate cancer 4 (serum fucosylated PSA; pH in lectin reaction 9.6): 282.6 U/mL
